# US9828373B2, “2-amino-pyrido[2,3-D]pyrimidin-7(8H)-one derivatives as CDK inhibitors and uses thereof” (SUNSHINE LAKE PHARMA CO., LTD., priority 2014, dated 2017)
# Read-outs that look alike come from different tables or passages of the source.
# What was measured:
# CDK4/CycD3 = CDK4/CycD3 (Homo sapiens, UniProt P11802); assay: Enzymatic inhibitory activity in vitro, CDK4 (Caliper mobility shift, FAM-labeled peptide); format: biochemical
# Excerpt: (§1) The materials are used in the following assay:
# (§2) HEPES: 4-(2-Hydroxyethyl)piperazine-1-ethanesulfonic acid; Brij-35: Polyethylene Glycol Monoisotridecyl Ether; DTT: Dithiothreitol; EDTA: Ethylene Diamine Tetraacetic Acid; CDK4/CycD3: Cyclin dependent kinase 4; CDK6/CycD3: Cyclin dependent kinase 6; Peptide FAM-P22: fluorescein-labeled peptide 22; ATP: adenosine triphosphate; DMSO: dimethyl sulfoxide; Staurosporine; Coating Reagent #3;
# (§3) 1. Preparation of 1× Kinase Base Buffer and Stop Buffer:
# (§4) (1) 1× Kinase buffer without MnCl2 (50 mM HEPES, pH 7.5, 0.0015% Brij-35, 10 mM MgCl2, 2 mM DTT); (2) Stop buffer (100 mM HEPES, pH 7.5, 0.015% Brij-35, 0.2% Coating Reagent #3, 50 mM EDTA).
# (§5) (1) The compound was diluted to 50× of the final desired highest inhibitor concentration in reaction by 100% DMSO. Transferring 100 μL of this compound dilution to a well in a 96-well plate. (2) The compound was diluted by transferring 20 μL of the compound dilution to 60 μL of 100% DMSO in the next well and so forth for a total of 10 concentrations. (3) 100 μL of 100% DMSO was added to two empty wells for no compound control and no enzyme control. (4) Intermediate plate was prepared by transferring 10 μL of compound from source plate to a new 96-well plate and adding 90 μL of 1× kinase buffer to each well of the intermediate plate. The compounds in intermediate plate were mixed for 10 min on shaker. (5) Assay plate was prepared by transferring 5 μL of each well from the 96-well intermediate plate to a 384-well plate in duplicates.
# (§6) (1) 2.5× Enzyme solution was prepared by adding kinase in 1× kinase base buffer. (2) 2.5× Peptide solution was prepared by adding FAM-labeled peptide and ATP in the 1× kinase base buffer. (3) 2.5× Enzyme solution was transferred to the assay plate contained 5 μL of compound in 10% DMSO, which was incubated at room temperature for 10 min. (4) 10 μL of 2.5× […] solution was added to each well of the 384-well assay plate. (5) Kinase reaction and stopping, after incubating at 28° C. for specified period of time, 25 μL of stop buffer was added to stop reaction.
# (§7) 4. Caliper Reading, Collect Data on Caliper.
# (§8) (1) Copying conversion data from Caliper program; (2) Converting conversion values to inhibition values: Percent inhibition=(max−conversion)/(max−min)*100; “max” means the value of control without compound; “min” means the value of control without enzyme; (3) Fitting the data in XLfit to obtain IC50 values.
# CDK6/CycD3 = CDK6/CycD3 (Homo sapiens, UniProt Q00534); assay: Enzymatic inhibitory activity in vitro, CDK6 (Caliper mobility shift, FAM-labeled peptide); format: biochemical
# Sequence of CDK6/CycD3 (Q00534 whole entry, species assumed): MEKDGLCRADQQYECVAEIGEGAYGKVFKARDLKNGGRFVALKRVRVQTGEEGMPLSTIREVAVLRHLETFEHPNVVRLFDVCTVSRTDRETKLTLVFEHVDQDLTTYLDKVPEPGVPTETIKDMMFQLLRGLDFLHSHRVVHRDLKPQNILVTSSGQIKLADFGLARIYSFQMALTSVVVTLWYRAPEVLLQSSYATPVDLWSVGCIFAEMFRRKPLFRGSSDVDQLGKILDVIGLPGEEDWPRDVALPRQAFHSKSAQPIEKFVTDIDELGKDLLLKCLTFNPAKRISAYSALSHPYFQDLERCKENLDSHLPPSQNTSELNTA
# Sequence of CDK6/CycD3 (P30281 whole entry partner, species assumed): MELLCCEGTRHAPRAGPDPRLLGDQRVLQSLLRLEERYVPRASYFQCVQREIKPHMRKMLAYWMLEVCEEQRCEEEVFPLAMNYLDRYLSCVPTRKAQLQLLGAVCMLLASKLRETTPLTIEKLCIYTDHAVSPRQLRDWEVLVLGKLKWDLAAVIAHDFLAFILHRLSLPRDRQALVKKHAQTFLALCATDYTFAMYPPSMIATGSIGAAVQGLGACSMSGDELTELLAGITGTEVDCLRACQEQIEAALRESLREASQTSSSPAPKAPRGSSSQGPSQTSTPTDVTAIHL
# Excerpt: as §1, §2, §3, §4, §5, §6, §7, §8
# [1] = Pharmacokinetics in rats (iv and oral, plasma LC-MS/MS); format: in vivo, male SD rats; conditions: rat
# Excerpt: The assay agents and samples are as shown below:
# Propranolol: Propranolol (internal standard); MTBE: Methyl Tertiary Butyl Ether; Cremophor EL: polyoxyethylated castor oil; KolliphorHS 15: polyethylene glycol 12-hydroxystearate; DMSO: dimethylsulfoxide; PEG400: polyethylene glycol 400; 18 male SD rats.
# Each test compound prepared was completely dissolved in a mixture of 5% DMSO+10% KolliphorHS 15+35% Saline or 5% DMSO+60% PEG400+35% Saline according solubility property thereof.
# Grouping male SD rats weighing 190-250 g randomly to two groups; one group was administered with test compound at a dose of 1.0 mg/kg by intravenous injection, the other group was administered with test compound at a dose of 5.0 mg/kg by oral. After administering, blood samples of intravenous injection group were collected at time points of 0.0833, 0.25, 0.5, 1, 2, 5, 7 and 24 h from caudal vein; blood samples of oral group were collected at time points of 0.25, 0.5, 1, 2, 5, 7 and 24 h from caudal vein. Standard curve was plotted based on concentrations of the samples in a suitable range, the concentrations of test compounds in plasma samples were determined by using LC-MS/MS. Pharmacokinetic parameters were calculated according to drug concentration-time curve using a noncompartmental method by WinNonLin 6.3 software.
# Sequence of CDK4/CycD3 (P11802 whole entry, species assumed): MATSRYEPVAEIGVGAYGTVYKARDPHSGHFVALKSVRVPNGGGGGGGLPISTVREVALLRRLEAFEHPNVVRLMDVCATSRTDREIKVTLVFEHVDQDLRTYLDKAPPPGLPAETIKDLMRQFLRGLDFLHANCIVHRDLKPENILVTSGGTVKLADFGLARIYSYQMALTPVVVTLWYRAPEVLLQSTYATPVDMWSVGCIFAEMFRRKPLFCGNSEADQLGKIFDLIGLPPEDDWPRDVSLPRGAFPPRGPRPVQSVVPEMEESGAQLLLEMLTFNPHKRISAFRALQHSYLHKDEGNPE
# Sequence of CDK4/CycD3 (P30281 whole entry partner, species assumed): as the sequence (P30281 whole entry partner, species assumed) above
smiles,measurement,setting,value
"CC(=O)c1c(C)c2cnc(Nc3ccc4c(ccn4C4CCNCC4)c3)nc2n(C2CCCC2)c1=O [Example 1, 6-Acetyl-8-cyclopentyl-5-methyl-2-((1-(piperidin-4-yl)-1H-indol-5-yl)amino)pyrido[2,3-d]pyrimidin-7(8H)-one]",IC50,CDK4/CycD3,6.8 nM
same,IC50,CDK6/CycD3,29.2 nM
"CC(=O)c1c(C)c2cnc(Nc3ncnc4c(C5=CCNCC5)csc34)nc2n(C2CCCC2)c1=O [Example 2, 6-Acetyl-8-cyclopentyl-5-methyl-2-((7-(1,2,3,6-tetrahydropyridin-4-yl)thieno[3,2-d]pyrimidin-4-yl)amino)pyrido[2,3-d]pyrimidin-7(8H)-one]",IC50,CDK4/CycD3,2390 nM
same,IC50,CDK6/CycD3,4810 nM
"CC(=O)c1c(C)c2cnc(Nc3ccc4c(n3)CCNC4)nc2n(C2CCCC2)c1=O [Example 3, 6-Acetyl-8-cyclopentyl-5-methyl-2-((5,6,7,8-tetrahydro-1,6-naphthyridin-2-yl)amino)pyrido[2,3-d]pyrimidin-7(8H)-one]",IC50,CDK4/CycD3,5.7 nM
same,IC50,CDK6/CycD3,47 nM
same,bioavailability,"[1]; male, SD, in vivo",101%
same,AUC(0-inf),"[1]; male, SD, in vivo, iv, 1 mg/kg",587 ng·h/mL
same,AUC(0-t),"[1]; male, SD, in vivo, iv, 1 mg/kg",485 ng·h/mL
same,Cmax,"[1]; male, SD, in vivo, iv, 1 mg/kg",141 ng/mL
same,Tmax,"[1]; male, SD, in vivo, iv, 1 mg/kg",0.42 h
same,half-life,"[1]; male, SD, in vivo, iv, 1 mg/kg",2.93 h
same,AUC(0-inf),"[1]; male, SD, in vivo, po, 5 mg/kg",2970 ng·h/mL
same,AUC(0-t),"[1]; male, SD, in vivo, po, 5 mg/kg",2930 ng·h/mL
same,Cmax,"[1]; male, SD, in vivo, po, 5 mg/kg",293 ng/mL
same,Tmax,"[1]; male, SD, in vivo, po, 5 mg/kg",4 h
same,half-life,"[1]; male, SD, in vivo, po, 5 mg/kg",3.91 h
"CC(=O)c1c(C)c2cnc(Nc3ccc4c(n3)CCN(C(=O)CO)C4)nc2n(C2CCCC2)c1=O [Example 4, 6-Acetyl-8-cyclopentyl-2-((6-(2-hydroxyacetyl)-5,6,7,8-tetrahydro-1,6-naphthyridin-2-yl)amino)-5-methylpyrido[2,3-d]pyrimidin-7(8H)-one]",IC50,CDK4/CycD3,17 nM
same,IC50,CDK6/CycD3,62 nM
"CC(=O)c1c(C)c2cnc(Nc3ccc4c(n3)CCN(CCC(F)(F)F)C4)nc2n(C2CCCC2)c1=O [Example 5, 6-Acetyl-8-cyclopentyl-5-methyl-2-((6-(3,3,3-trifluoropropyl)-5,6,7,8-tetrahydro-1,6-naphthyridin-2-yl)amino)pyrido[2,3-d]pyrimidin-7(8H)-one]",IC50,CDK4/CycD3,25 nM
same,IC50,CDK6/CycD3,1060 nM
"CC(=O)c1c(C)c2cnc(Nc3ccc4c(n3)CCN(C(C)=O)C4)nc2n(C2CCCC2)c1=O [Example 6, 6-Acetyl-2-((6-acetyl-5,6,7,8-tetrahydro-1,6-naphthyridin-2-yl)amino)-8-cyclopentyl-5-methylpyrido[2,3-d]pyrimidin-7(8H)-one]",IC50,CDK4/CycD3,20 nM
same,IC50,CDK6/CycD3,65 nM
"CCN1CCc2nc(Nc3ncc4c(C)c(C(C)=O)c(=O)n(C5CCCC5)c4n3)ccc2C1 [Example 7, 6-Acetyl-2-((6-ethyl-5,6,7,8-tetrahydro-1,6-naphthyridin-2-yl)amino)-8-cyclopentyl-5-methylpyrido[2,3-d]pyrimidin-7(8H)-one]",IC50,CDK4/CycD3,19 nM
same,IC50,CDK6/CycD3,83 nM
CC(=O)c1c(C)c2cnc(Nc3ccc4c(n3)CCN(C3CCNCC3)C4)nc2n(C2CCCC2)c1=O [Example 39],IC50,CDK4/CycD3,14 nM
same,IC50,CDK6/CycD3,51 nM
"CC(=O)c1c(C)c2cnc(Nc3ccc4c(n3)CCN(C3CCN(C)CC3)C4)nc2n(C2CCCC2)c1=O [Example 40, 6-Acetyl-8-cyclopentyl-5-methyl-2-((6-(1-methylpiperidin-4-yl)-5,6,7,8-tetrahydro-1,6-naphthyridin-2-yl)amino)pyrido[2,3-d]pyrimidin-7(8H)-one]",IC50,CDK4/CycD3,7.2 nM
same,IC50,CDK6/CycD3,25 nM
"CC(=O)c1c(C)c2cnc(Nc3ccc4c(n3)CCN(C3COC3)C4)nc2n(C2CCCC2)c1=O [Example 41, 6-Acetyl-8-cyclopentyl-5-methyl-2-((6-(oxetan-3-yl)-5,6,7,8-tetrahydro-1,6-naphthyridin-2-yl)amino)pyrido[2,3-d]pyrimidin-7(8H)-one]",IC50,CDK4/CycD3,18 nM
same,IC50,CDK6/CycD3,59 nM
"CC(=O)c1c(C)c2cnc(Nc3ccc(N4CCNCC4)cn3)nc2n(C2CCCC2)c1=O [Palbociclib, reference compound]",AUC(0-inf),"[1]; plasma, male SD rats, iv, 1.0 mg/kg, read-out: AUCINF",332 ng·h/mL
same,AUC(0-t),"[1]; plasma, male SD rats, iv, 1.0 mg/kg, read-out: AUClast",294 ng·h/mL
same,Cmax,"[1]; plasma, male SD rats, iv, 1.0 mg/kg, read-out: Cmax",143 ng/mL
same,half-life,"[1]; plasma, male SD rats, iv, 1.0 mg/kg, read-out: T1/2 (converted)",2.72 h
same,Tmax,"[1]; plasma, male SD rats, iv, 1.0 mg/kg, read-out: Tmax",0.083 h
same,bioavailability,"[1]; plasma, male SD rats, po 5.0 mg/kg versus iv 1.0 mg/kg, read-out: F (%)",79.9%
same,AUC(0-inf),"[1]; plasma, male SD rats, po, 5.0 mg/kg, read-out: AUCINF",1400 ng·h/mL
same,AUC(0-t),"[1]; plasma, male SD rats, po, 5.0 mg/kg, read-out: AUClast",1280 ng·h/mL
same,Cmax,"[1]; plasma, male SD rats, po, 5.0 mg/kg, read-out: Cmax",156 ng/mL
same,half-life,"[1]; plasma, male SD rats, po, 5.0 mg/kg, read-out: T1/2 (converted)",4.28 h
same,Tmax,"[1]; plasma, male SD rats, po, 5.0 mg/kg, read-out: Tmax",2.67 h
